Source: patent EP4763839A1 (Pamplona Therapeutics (Shenzhen) Co., Ltd., priority 2023, dated 2025)

What follows are molecules tested against T1, IRAK4 (Homo sapiens, UniProt Q9NWZ3) (assay: Assay for inhibitory effect of compound on IRAK4 kinase activity (KinEASE-STK S1 HTRF kit)). Settings: not given.
T1 sequence (Q9NWZ3 1-460): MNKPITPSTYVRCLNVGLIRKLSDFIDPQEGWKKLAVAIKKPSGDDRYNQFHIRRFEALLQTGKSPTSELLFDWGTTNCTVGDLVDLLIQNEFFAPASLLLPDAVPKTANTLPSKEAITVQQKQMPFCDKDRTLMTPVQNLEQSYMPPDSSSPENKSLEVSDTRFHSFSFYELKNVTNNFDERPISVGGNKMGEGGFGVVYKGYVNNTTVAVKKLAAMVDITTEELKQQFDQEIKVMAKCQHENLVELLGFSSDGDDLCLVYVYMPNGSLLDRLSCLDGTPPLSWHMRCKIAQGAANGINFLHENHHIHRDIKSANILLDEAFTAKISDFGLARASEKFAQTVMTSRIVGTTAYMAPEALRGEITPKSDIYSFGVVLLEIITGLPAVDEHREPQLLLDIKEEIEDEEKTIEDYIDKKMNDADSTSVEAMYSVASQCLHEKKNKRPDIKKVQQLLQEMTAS
Type: biochemical
Summary of the method: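 HTRF assay: 8 nM IRAK4 preincubated 15 minutes at rt with compound (final 5,000–0.0254 nM, 3-fold dilutions), then 400 nM biotinylated STK1 substrate and 80 µM ATP, 90 minutes at 37°C. Eu-cryptate anti-phospho-Ser/Thr antibody and streptavidin-XL665 detection, 665/620 ratio; IC50 from nonlinear fit of inhibition.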

SMILES	IC50 [nM]
NS(=O)(=O)c1nn(C2CCC2)cc1NC(=O)c1ccn2ncc(-c3ccn[nH]3)c2n1 [Compound A278, N-(1-cyclobutyl-3-sulfonamide-1H-pyrazol-4-yl)-3-(1H-pyrazol-5-yl)pyrazolo[1,5-a]pyrimidine-5-carboxamide]	< 100

Same assay, conditions: kinase 8 nM, ATP 80 µM, 37°C 90 minutes; read-out: IRAK4 HTRF IC50

IC50 [nM]	SMILES
100 to 1000	O=C(Nc1cn(C2CCCCC2)nc1C(=O)NC1CC1)c1cccc(-c2ccn[nH]2)n1 [Compound A255, N-(1-Cyclohexyl-3-(cyclopropylcarbamoyl)-1H-pyrazol-4-yl)-6-(1H-pyrazol-5-yl)picolinamide]
< 100	O=C(Nc1cn(C2CCNCC2)nc1C(=O)NC1CC1)c1cccc(-c2ccn[nH]2)n1 [Compound A256, N-(3-(Cyclopropylcarbamoyl)-1-(piperidin-4-yl)-1H-pyrazol-4-yl)-6-(1H-pyrazol-5-yl)picolinamide]
< 100	O=C(Nc1cn(-c2cccnc2)nc1C(=O)NC1CC1)c1cccc(-c2ccn[nH]2)n1 [Compound A257, N-(3-(Cyclopropylcarbamoyl)-1-(pyridin-3-yl)-1H-pyrazol-4-yl)-6-(1H-pyrazol-5-yl)picolinamide]
100 to 1000	NC(=O)c1nn(C23CC(C2)C3)cc1NC(=O)c1cccc(C(F)(F)F)n1 [Compound A258]
100 to 1000	CC(C)(O)c1nn(C2CCCCC2)cc1NC(=O)c1ccc2cc(C#N)cnn12 [Compound A259, 3-cyano-N-(1-cyclohexyl-3-(2-hydroxypropan-2-yl)-1H-pyrazol-4-yl)pyrrolo[1,2-b]pyridazine-7-carboxamide]
< 100	NS(=O)(=O)c1nn(C2CCCCC2)cc1NC(=O)c1cccc(-c2ccn[nH]2)n1 [Compound A260, N-(1-Cyclohexyl-3-sulfamoyl-1H-pyrazol-4-yl)-6-(1H-pyrazol-5-yl)picolinamide]
< 100	NS(=O)(=O)c1nn(-c2ccccc2)cc1NC(=O)c1cccc(-n2ccnc2)n1 [Compound A261, 6-(1H-Imidazol-1-yl)-N-(1-phenyl-3-sulfamoyl-1H-pyrazol-4-yl)picolinamide]
< 100	COc1nn(-c2ccccc2)cc1NC(=O)c1cccc(C(=O)c2cn[nH]c2)n1 [Compound A262, N-(3-methoxy-1-phenyl-1H-pyrazol-4-yl)-6-(1H-pyrazole-4-carbonyl)picolinamide]
100 to 1000	COc1nn(C2CCCCC2)cc1NC(=O)c1cccc(-c2ccn[nH]2)n1 [Compound A263, N-(1-Cyclohexyl-3-methoxy-1H-pyrazol-4-yl)-6-(1H-pyrazol-5-yl)picolinamide]
100 to 1000	CC(F)(F)c1cccc(C(=O)Nc2cn(-c3ccccc3)nc2C(N)=O)n1 [Compound A264]
100 to 1000	CC(F)(F)c1cccc(C(=O)Nc2cn(-c3ccccc3)nc2C(=O)NC2CC2)n1 [Compound A265, N-(3-(Cyclopropylcarbamoyl)-1-phenyl-1H-pyrazol-4-yl)-6-(1,1-difluoroethyl)picolinamide]
100 to 1000	N#Cc1cnn2c(C(=O)Nc3cn(C4CCCCC4)nc3C(F)F)ccc2c1 [Compound A266, 3-cyano-N-(1-cyclohexyl-3-(difluoromethyl)-1H-pyrazol-4-yl)pyrrolo[1,2-b]pyridazine-7-carboxamide]
100 to 1000	O=C(Nc1cn(C2CCC2)nc1C(F)F)c1ccn2ncc(-c3ccn[nH]3)c2n1 [Compound A279, N-(1-cyclobutyl-3-(difluoromethyl)-1H-pyrazol-4-yl)-3-(1H-pyrazol-5-yl)pyrazolo[1,5-a]pyrimidine-5-carboxamide]
100 to 1000	NC(=O)c1nn(C2CCC2)cc1NC(=O)c1ccn2ncc(-c3ccn[nH]3)c2n1 [Compound A280, N-(3-carbamoyl-1-cyclobutyl-1H-pyrazol-4-yl)-3-(1H-pyrazol-5-yl)pyrazolo[1,5-a]pyrimidine-5-carboxamide]
100 to 1000	CC(C)(O)c1nn(C2CCC2)cc1NC(=O)c1ccn2ncc(-c3ccn[nH]3)c2n1 [Compound A281, N-(1-cyclobutyl-3-(2-hydroxypropan-2-yl)-1H-pyrazol-4-yl)-3-(1H-pyrazol-5-yl)pyrazolo[1,5-a]pyrimidine-5-carboxamide]
100 to 1000	O=C(NC1CC1)c1nn(C2CCC2)cc1NC(=O)c1cnn2ccc(-c3ccn[nH]3)nc12 [Compound A286, N-(1-cyclobutyl-3-(cyclopropylcarbamoyl)-1H-pyrazol-4-yl)-5-(1H-pyrazol-5-yl)pyrazolo[1,5-a]pyrimidine-3-carboxamide]
100 to 1000	O=C(NC1CC1)c1nn(C2CCC2)cc1NC(=O)c1cnn2ccc(-c3cn[nH]c3)nc12 [Compound A287]
< 100	COc1nn(C2CCC2)cc1NC(=O)c1cnn2ccc(-c3ccn[nH]3)nc12 [Compound A288, N-(1-cyclobutyl-3-methoxy-1H-pyrazol-4-yl)-5-(1H-pyrazol-5-yl)pyrazolo[1,5-a]pyrimidine-3-carboxamide]
< 100	COc1nn(C2CCC2)cc1NC(=O)c1cnn2ccc(-c3cn[nH]c3)nc12 [Compound A289, N-(1-cyclobutyl-3-methoxy-1H-pyrazol-4-yl)-5-(1H-pyrazol-4-yl)pyrazolo[1,5-a]pyrimidine-3-carboxamide]
100 to 1000	CC(C)(O)c1nn(C2CCC2)cc1NC(=O)c1cnn2ccc(-c3ccn[nH]3)nc12 [Compound A290, N-(1-cyclobutyl-3-(2-hydroxypropan-2-yl)-1H-pyrazol-4-yl)-5-(1H-pyrazol-5-yl)pyrazolo[1,5-a]pyrimidine-3-carboxamide]
< 100	O=C(Nc1cn(C2CCC2)nc1C(F)F)c1cnn2ccc(-c3ccn[nH]3)nc12 [Compound A291, N-(1-cyclobutyl-3-(difluoromethyl)-1H-pyrazol-4-yl)-5-(1H-pyrazol-5-yl)pyrazolo[1,5-a]pyrimidine-3-carboxamide]
< 100	NC(=O)c1nn(C2CCC2)cc1NC(=O)c1cnn2ccc(-c3ccn[nH]3)nc12 [Compound A292, N-(3-Carbamoyl-1-cyclobutyl-1H-pyrazol-4-yl)-5-(1H-pyrazol-5-yl)pyrazolo[1,5-a]pyrimidine-3-carboxamide]
< 100	NS(=O)(=O)c1nn(C2CCC2)cc1NC(=O)c1cnn2ccc(-c3ccn[nH]3)nc12 [Compound A293, N-(1-cyclobutyl-3-sulfamoyl-1H-pyrazol-4-yl)-5-(1H-pyrazol-5-yl)pyrazolo[1,5-a]pyrimidine-3-carboxamide]
100 to 1000	NC(=O)c1nn(-c2ccccc2)cc1NC(=O)c1cccc(-c2nc[nH]n2)n1 [Compound A457, N-(3-Carbamoyl-1-phenyl-1H-pyrazol-4-yl)-6-(1H-1,2,4-triazol-3-yl)picolinamide]

These molecules were tested on IL-6 (assay: Inhibition of R848-induced IL-6 release in human PBMCs, IL-6 ELISA). Settings: PBMC, compound 24 hours, then R848 10 µg/mL 5 hours.
Type: cell-based
Protocol: Example 3: Detection of inhibition of R848-induced IL-6 release
Cryopreserved human PBMCs (Milestone® Biotechnologies, PB010C-W) were thawed and resuspended in RPMI-1640 medium (Gibco, 22400-105) supplemented with 10% fetal bovine serum (Gibco, 10099-141), 100 U/mL penicillin, and 100 µg/mL streptomycin (Gibco, 15140122). Subsequently, 190 µL of the PBMC suspension was added to each well of 96-well clear cell culture plates (Corning, 3599) to achieve a density of 1×10^5 cells/well. The cell plates were incubated at 37°C in a 5% CO2 incubator for 30 minutes. Then, 5 µL of diluted compound solution was added to the corresponding cell-seeded wells to achieve final concentrations ranging from 0.046 to 3,000 nM. The final concentration of DMSO was 0.1%. After the compound-treated cell plate was incubated at 37°C in a 5% CO2 incubator for 24 hours, 5 µL of R848 (MCE, HY-13740) was added to achieve a final concentration of 10 µg/mL. The cell plates were incubated again at 37°C in a 5% CO2 incubator for 5 hours, then centrifuged at 1,000 rpm for 1 minute. 100 µL of the cell supernatant from each well was transferred to a new 96-well clear cell culture plate for IL-6 concentration testing.
Interleukin-6 (IL-6) ELISA assay
The IL-6 concentration in the supernatant of R848-induced human PBMCs was determined using a Human IL-6 (interleukin-6) ELISA KIT (4Bio, CHE0009-048). IL-6 standard solutions at different concentrations, ranging from 3.9 to 250 pg/mL, were prepared according to the manufacturer's instructions. 100 µL of each concentration of the IL-6 standard solution and the pre-diluted test cell supernatant samples were added separately to anti-IL-6 antibody-coated and blocked clear 96-well plates, followed by incubation at 37°C for 1.5 hours. According to the product instructions, the plates were washed, 100 µL of biotinylated antibody was added, and the plates were incubated at 37°C for 1 hour. The plates were washed, 100 µL of enzyme conjugate working solution was added. The plates were incubated at 37°C for 30 minutes, and then washed. 100 µL of chromogenic substrate was added, and the plates were incubated at 37°C for 10-20 minutes. The reaction was terminated by adding 100 µL of stop solution. After the reaction, the OD value at 450 nm was measured in absorbance mode using an Envision microplate reader (PerkinElmer). A standard curve was plotted using the corrected OD values of the various concentrations of IL-6 standard solutions. The IL-6 concentration in each cell supernatant was then determined on the basis of the corresponding concentration for the corrected OD value of the test sample on the standard curve. […] Subsequently, the IC50 value of the compound was calculated by performing non-linear curve fitting of concentration versus inhibition rate using GraphPad Prism 9.

SMILES	IC50 [nM]
COc1ccc(C(=O)N2CCC(CCN3CCN(c4ccc(-n5cc(NC(=O)c6cccc(C(F)(F)F)n6)c(C(N)=O)n5)cc4)CC3)C(F)(F)C2)cc1N1CCC(=O)NC1=O (stereo not drawn) [Compound A168]	< 10
NC(=O)c1nn(-c2ccc(N3CCN(CC4CCN(c5ccc(C(=O)NC6CCC(=O)NC6=O)cc5)CC4)CC3)cc2)cc1NC(=O)c1cccc(C(F)(F)F)n1 (stereo not drawn) [Compound A171]	10 to 30
